Melting point and IC50 data for 42 compounds are collected here from patent US7476756B2, “Alkyl-, alkenyl- and alkynylcarbamate derivatives, their preparation and their application in therapeutics” (Sanofi-Aventis, priority 2005, dated 2009).

Series [1] has as its target T1, enzyme FAAH (Fatty Acid Amido Hydrolase) (Mus musculus, UniProt O08914).
T1 construct: The membrane homogenates are prepared at the time of use by homogenization of the tissues with a Polytron; from tissue; host or cells: mouse brain (minus the cerebellum), membrane homogenate
T1 sequence (O08914 1-579): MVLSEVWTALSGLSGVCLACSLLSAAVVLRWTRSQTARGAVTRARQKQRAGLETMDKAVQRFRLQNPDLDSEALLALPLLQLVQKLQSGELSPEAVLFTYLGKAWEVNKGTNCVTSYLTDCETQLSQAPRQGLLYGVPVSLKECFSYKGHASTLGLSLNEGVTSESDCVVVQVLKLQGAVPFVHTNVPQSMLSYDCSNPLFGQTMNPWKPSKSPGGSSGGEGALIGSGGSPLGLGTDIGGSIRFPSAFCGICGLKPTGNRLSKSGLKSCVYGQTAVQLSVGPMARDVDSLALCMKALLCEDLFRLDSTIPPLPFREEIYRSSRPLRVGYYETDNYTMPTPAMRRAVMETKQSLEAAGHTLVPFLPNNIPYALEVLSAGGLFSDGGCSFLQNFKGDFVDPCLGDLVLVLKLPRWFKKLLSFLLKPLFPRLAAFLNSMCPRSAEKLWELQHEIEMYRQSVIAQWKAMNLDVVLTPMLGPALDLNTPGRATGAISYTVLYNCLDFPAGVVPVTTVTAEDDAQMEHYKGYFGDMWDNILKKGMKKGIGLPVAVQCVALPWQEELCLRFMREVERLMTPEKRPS
In words: radioenzymatic test of FAAH inhibition (hydrolysis of ((1-3H)ethanolamine)-anandamide, mouse brain membrane homogenates). In kind it is biochemical. Particulars: mouse brain membrane homogenate; 10 μM anandamide; 15 minutes at 25° C.; read-out: IC50 (concentration which inhibits the control enzymatic activity of FAAH by 50%). Here is the method:
The compounds of the invention have formed the subject of pharmacological trials which make it possible to determine their inhibitory effect on the enzyme FAAH (Fatty Acid Amido Hydrolase).
Thus, mouse brains (minus the cerebellum) are removed and stored at −80° C. The membrane homogenates are prepared at the time of use by homogenization of the tissues with a Polytron in a 10 mM Tris-HCl buffer (pH 8) comprising 150 mM NaCl and 1 mM EDTA. The enzymatic reaction is subsequently carried out in 70 μl of buffer comprising bovine serum albumin free from fatty acids (1 mg/ml). The test compounds, at various concentrations, the ((1-^3H)ethanolamine)-anandamide (specific activity of 15-20 Ci/mmol), diluted to 10 μM with non-radiolabelled anandamide, and the membrane preparation (400 μg of frozen tissue per assay) are successively added. After 15 minutes at 25° C., the enzymatic reaction is halted by addition of 140 μl of chloroform/methanol (2:1). The mixture is stirred for 10 minutes and is then centrifuged at 3500 g for 15 minutes. An aliquot (30 μl) of the aqueous phase comprising the (1-^3H)ethanolamine is counted by liquid scintillation.

The term melting point denotes the temperature, or range, at which the solid turns liquid.

Take `CCCCCNC(=O)OC(C)C(N)=O` (stereo not drawn) [Compound 1, 2-Amino-1-methyl-2-oxoethyl (pent-1-yl)carbamate]: the melting point lay in the range of 132 to 134 °C.

Consider `CCC/C=C/CNC(=O)OCC(=O)NC` [Compound 2, 2-(Methylamino)-2-oxoethyl ((2E)-hex-2-en-1-yl)carbamate], for which the melting point lay within 85 to 87 °C. Still for that read-out and setting: to `CCC/C=C/CNC(=O)OCC(N)=O` [Compound 3, 2-Amino-2-oxoethyl ((2E)-hex-2-en-1-yl)carbamate] belongs 126 to 128 °C; to `CCC/C=C\CNC(=O)OCC(N)=O` [Compound 4, 2-Amino-2-oxoethyl ((2Z)-hex-2-en-1-yl)carbamate], 102 to 104 °C; to `CC/C=C/CCNC(=O)OCC(N)=O` [Compound 6, 2-Amino-2-oxoethyl ((3E)-hex-3-en-1-yl)carbamate], 138 to 140 °C. Compound `CC/C=C\CCNC(=O)OCC(=O)NC` [Compound 7, 2-(Methylamino)-2-oxoethyl ((3Z)-hex-3-en-1-yl)carbamate] registered a melting point of 72 to 74 °C. Same read-out and setting: to `CC/C=C/CCNC(=O)OCC(=O)NC` [Compound 8, 2-(Methylamino)-2-oxoethyl ((3E)-hex-3-en-1-yl)carbamate] belongs 88 to 90 °C; to `CCC/C=C\CNC(=O)OCC(=O)NC` [Compound 9, 2-(Methylamino)-2-oxoethyl ((2Z)-hex-2-en-1-yl)carbamate], 74 to 76 °C. `CCCCCCNC(=O)OCC(=O)NC` [Compound 10, 2-(Methylamino)-2-oxoethyl (hex-1-yl)carbamate] had a melting point of 86 to 88 °C.

Compound `CCCCCCNC(=O)OC(C)C(N)=O` (stereo not drawn) [Compound 11, 2-Amino-1-methyl-2-oxoethyl (hex-1-yl)carbamate] returned a melting point of 123 to 125 °C.

As for `CCCCCCCNC(=O)OCC(=O)NC` [Compound 13, 2-(Methylamino)-2-oxoethyl (hept-1-yl)carbamate], the melting point lay in the range of 87 to 89 °C. For the same compound, the IC50 in series [1] was 91 nM. `CCCCC/C=C/CNC(=O)OCC(=O)NC` [Compound 14, 2-(Methylamino)-2-oxoethyl ((2E)-oct-2-en-1-yl)carbamate] displayed a melting point of 80 to 82 °C. `CCCCC/C=C/CNC(=O)OCC(N)=O` [Compound 15, 2-Amino-2-oxoethyl ((2E)-oct-2-en-1-yl)carbamate] had a melting point of 126 to 128 °C. Same read-out and setting: then `CCCC/C=C\CCNC(=O)OCC(=O)NC` [Compound 16, 2-(Methylamino)-2-oxoethyl ((3Z)-oct-3-en-1-yl)carbamate], with 62 to 64 °C. Turning to `CCCC/C=C\CCNC(=O)OCC(N)=O` [Compound 17, 2-Amino-2-oxoethyl ((3Z)-oct-3-en-1-yl)carbamate], the melting point was 113 to 115 °C. Same read-out and setting: to `CC/C=C\CCCCNC(=O)OCC(N)=O` [Compound 18, 2-Amino-2-oxoethyl ((5Z)-oct-5-en-1-yl)carbamate] belongs 122 to 124 °C; to `CC/C=C\CCCCNC(=O)OCC(=O)NC` [Compound 19, 2-(Methylamino)-2-oxoethyl ((5Z)-oct-5-en-1-yl)carbamate], 69 to 71 °C; to `C=CCCCCCCNC(=O)OCC(N)=O` [Compound 20, 2-Amino-2-oxoethyl (oct-7-en-1-yl)carbamate], 122 to 124 °C. Same read-out and setting: to `C=CCCCCCCNC(=O)OCC(=O)NC` [Compound 21, 2-(Methylamino)-2-oxoethyl (oct-7-en-1-yl)carbamate] belongs 72 to 74 °C. Consider `CNC(=O)COC(=O)NC1CCCCCCC1` [Compound 22, 2-(Methylamino)-2-oxoethyl (cyclooct-1-yl)carbamate], for which the melting point is 81 to 83 °C. For the same compound, the IC50 in series [1] was 696 nM.

Consider `CCCCCCCCNC(=O)OC(C)C(N)=O` (stereo not drawn) [Compound 23, 2-Amino-1-methyl-2-oxoethyl (oct-1-yl)carbamate], for which the melting point is 130 to 132 °C. As for `CCCCCCC(C)NC(=O)OCC(=O)NC` (stereo not drawn) [Compound 24, 2-(Methylamino)-2-oxoethyl (1-methylhept-1-yl)carbamate], the IC50 in series [1] was 89 nM. `CCCCCCCCCNC(=O)OCC(=O)NC` [Compound 25, 2-(Methylamino)-2-oxoethyl (non-1-yl)carbamate] registered a melting point of 95 to 97 °C. Still for that read-out and setting: to `CCCCCCCCCCNC(=O)OCC(=O)NC` [Compound 26, 2-(Methylamino)-2-oxoethyl decylcarbamate] belongs 98 to 100 °C. On to `CCCCCCCCCCNC(=O)OC(C)C(N)=O` (stereo not drawn) [Compound 27, 2-Amino-1-methyl-2-oxoethyl (dec-1-yl)carbamate], for which the melting point fell in the range of 133 to 135 °C. As to `CCCCCCCCCC(C)NC(=O)OCC(=O)NC` (stereo not drawn) [Compound 28, 2-(Methylamino)-2-oxoethyl (1-methyldec-1-yl)carbamate], the melting point was in the range of 71 to 73 °C. Still for that read-out and setting: then `CNC(=O)COC(=O)NC1CCCCCCCCCCC1` [Compound 29, 2-(Methylamino)-2-oxoethyl (cyclododec-1-yl)carbamate], with 171 to 173 °C. Still for that read-out and setting: to `CCCCCCCCCCCCNC(=O)OCC(=O)NC` [Compound 30, 2-(Methylamino)-2-oxoethyl (dodec-1-yl)carbamate] belongs 103 to 105 °C; to `CC/C=C\CCCCCCCCCCNC(=O)OCC(N)=O` [Compound 31, 2-amino-2-oxoethyl ((11Z)-tetradec-11-en-1-yl)carbamate], 120 to 123 °C. The same measure, in the same setting: to `CC/C=C\CCCCCCCCCCNC(=O)OCC(=O)NC` [Compound 32, 2-(Methylamino)-2-oxoethyl ((11Z)-tetradec-11-en-1-yl)carbamate] belongs 79 to 81 °C; to `CCCCCCCCCCCCCCNC(=O)OCC(=O)NC` [Compound 33, 2-(Methylamino)-2-oxoethyl (tetradec-1-yl)carbamate], 106 to 108 °C; to `CCCCCC/C=C\CCCCCCCCNC(=O)OCC(N)=O` [Compound 34, 2-Amino-2-oxoethyl ((9Z)-hexadec-9-en-1-yl)carbamate], 127 to 129 °C. `CCCCCC/C=C\CCCCCCCCNC(=O)OCC(=O)NC` [Compound 35, 2-(Methylamino)-2-oxoethyl ((9Z)-hexadec-9-en-1-yl)carbamate] came in with a melting point of 69 to 71 °C. As to `CCCCCCCCCCCCC(C)NC(=O)OCC(=O)NC` (stereo not drawn) [Compound 36, 2-(Methylamino)-2-oxoethyl (1-methyltridecyl)carbamate], the melting point was 82 to 84 °C. `CCCCCCCCCCCCCCCNC(=O)OCC(=O)NC` [Compound 37, 2-(Methylamino)-2-oxoethyl (pentadec-1-yl)carbamate] displayed a melting point of 107 to 109 °C.

For `CCCCCCCCCCC/C=C\CCCCCNC(=O)OCC(N)=O` [Compound 39, 2-Amino-2-oxoethyl ((6Z)-octadec-6-en-1-yl)carbamate], the melting point fell in the range of 100 to 102 °C.

In the case of `CCCCCCCCCCC/C=C\CCCCCNC(=O)OCC(=O)NC` [Compound 40, 2-(Methylamino)-2-oxoethyl ((6Z)-octadec-6-en-1-yl)carbamate], the melting point was 72 to 74 °C. Same read-out and setting: to `CCCCCCCCCCCCCCCCCCCNC(=O)OCC(=O)NC` [Compound 41, 2-(Methylamino)-2-oxoethyl ((methyl)octadec-1-yl)carbamate] belongs 85 to 87 °C. On the same count and under the same terms, to `CCCCCCCCCCCCCCCCCCCNC(=O)OCC(=O)NC` [Compound 43, 2-(Methylamino)-2-oxoethyl (nonadec-1-yl)carbamate] belongs 113 to 115 °C; to `CC/C=C/C/C=C/C/C=C/CCCCCCCCCCNC(=O)OCC(=O)NC` [Compound 45, 2-(Methylamino)-2-oxoethyl ((11E,14E,17E)-icosa-11,14,17-trien-1-yl)carbamate], 57 to 59 °C; to `CCCCC/C=C/C/C=C/CCCCCCCCCCNC(=O)OCC(=O)NC` [Compound 46, 2-(Methylamino)-2-oxoethyl ((11E,14E)-icosa-11,14-dien-1-yl)carbamate], 58 to 60 °C.

`CCCCCCCC/C=C/CCCCCCCCCCNC(=O)OCC(=O)NC` [Compound 47, 2-(Methylamino)-2-oxoethyl ((11E)-icosa-11-en-1-yl)carbamate] registered a melting point of 77 to 79 °C. The IC50 in series [1] worked out at 154 nM.
